# In PubChem BioAssay AID1437 (PCMD, 2008):
# Activity calls are given as the source filed them. The rule behind the calls is not given here.
# Biological target: DNA repair protein RAD51 homolog 1 (Homo sapiens) (UniProt Q06609)
# Assay: RAD51 recombination inhibitor potency, dose response, biochemical, homologous recombination, fluorescence, second set (AID 1437)
# Conditions: RAD51 homologous recombination biochemical assay
# Sequence of DNA repair protein RAD51 homolog 1 (Homo sapiens) (Q06609 whole entry, looked up): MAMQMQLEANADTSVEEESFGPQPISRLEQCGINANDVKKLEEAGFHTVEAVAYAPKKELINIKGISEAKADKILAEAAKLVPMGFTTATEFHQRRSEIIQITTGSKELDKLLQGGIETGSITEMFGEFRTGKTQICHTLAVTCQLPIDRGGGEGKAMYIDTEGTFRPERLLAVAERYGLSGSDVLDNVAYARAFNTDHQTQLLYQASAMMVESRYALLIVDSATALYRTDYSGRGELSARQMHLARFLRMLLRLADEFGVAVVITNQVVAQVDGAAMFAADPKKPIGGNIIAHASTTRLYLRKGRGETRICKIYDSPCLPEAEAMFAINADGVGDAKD
row,IC50,Compound
1,> 53 µM (inactive),Cc1ccc(C2/C(=C(\O)c3ccc4c(c3)OCCO4)C(=O)C(=O)N2CCCN(C)C)o1 (stereo not drawn)
2,> 53 µM (inactive),Cc1cc(C)cc(N2C(=O)CC(Sc3nnnn3-c3ccccc3)C2=O)c1 (stereo not drawn)
3,24.8 µM,COC(=O)c1ccc(=O)c2nc3/c(=C/O)c(O)cc(=O)c3[nH]c12
